Source: ChEMBL document CHEMBL5113392, “Novel hybrid pyrrolidinedione-thiazolidinones as potential anticancer agents: Synthesis and biological evaluation” (Eur J Med Chem, 2022)

Legend:
Salmon testes DNA = test: Displacement of methyl green from salmon sperm DNA at 10 uM measured after 2 hrs by fluorescence plate reader method relative to control; type: nucleic-acid assay; conditions: Salmo salar
HCT-116 = test: Anticancer activity against human HCT-116 cells assessed as cell growth inhibition incubated for 72 hrs by MTT assay; type: functional
[1] = Selectivity index, ratio of GI50 for human HaCaT cells to GI50 for human MCF7 cells; type: toxicity; conditions: HaCaT cells versus MCF7 cells, read-out: RatioGI50
SK-OV-3 = test: Anticancer activity against human SK-OV-3 cells assessed as cell growth inhibition incubated for 72 hrs by MTT assay; type: functional
[2] = Selectivity index, ratio of GI50 for human HaCaT cells to GI50 for human MDA-MB-231 cells; type: toxicity; conditions: HaCaT cells versus MDA-MB-231 cells, read-out: RatioGI50
[3] = Selectivity index, ratio of GI50 for human HaCaT cells to GI50 for human HCT-116 cells; type: toxicity; conditions: HaCaT cells versus HCT-116 cells, read-out: RatioGI50
[4] = Selectivity index, ratio of GI50 for human HaCaT cells to GI50 for human Jurkat cells; type: toxicity; conditions: HaCaT cells versus Jurkat cells, read-out: RatioGI50
HeLa = test: Anticancer activity against human HeLa cells assessed as cell growth inhibition incubated for 72 hrs by MTT assay; type: functional
[5] = Selectivity index, ratio of GI50 for human HaCaT cells to GI50 for human U-251 cells; type: toxicity; conditions: HaCaT cells versus U-251 cells, read-out: RatioGI50
Jurkat = test: Anticancer activity against human Jurkat cells assessed as cell growth inhibition incubated for 72 hrs by MTT assay; type: functional
[6] = Selectivity index, ratio of GI50 for human HaCaT cells to GI50 for human HeLa cells; type: toxicity; conditions: HaCaT cells versus HeLa cells, read-out: RatioGI50
MDA-MB-231 = test: Anticancer activity against human MDA-MB-231 cells assessed as cell growth inhibition incubated for 72 hrs by MTT assay; type: functional
[7] = Selectivity index, ratio of GI50 for human HaCaT cells to GI50 for human A549 cells; type: toxicity; conditions: HaCaT cells versus A549 cells, read-out: RatioGI50
[8] = Anticancer activity against human HCT116-p53-null cells assessed as cell growth inhibition incubated for 72 hrs by MTT assay; type: functional
[9] = Selectivity index, ratio of GI50 for human HaCaT cells to GI50 for human HCT116-p53-null cells; type: toxicity; conditions: HaCaT cells versus HCT116-p53-null cells, read-out: RatioGI50
[10] = Selectivity index, ratio of GI50 for human HaCaT cells to GI50 for human SK-OV-3 cells; type: toxicity; conditions: HaCaT cells versus SK-OV-3 cells, read-out: RatioGI50
[11] = Cytotoxicity against human HaCaT cells assessed as cell growth inhibition incubated for 72 hrs by MTT assay; type: toxicity, cell-based
U-251 = test: Anticancer activity against human U-251 cells assessed as cell growth inhibition incubated for 72 hrs by MTT assay; type: functional
MCF7 [12] = test: Anticancer activity against human MCF7 cells assessed as cell growth inhibition incubated for 72 hrs by MTT assay; type: functional
A549 = test: Anticancer activity against human A549 cells assessed as cell growth inhibition incubated for 72 hrs by MTT assay; type: functional
[13] = Cytotoxicity against mitogen activated human peripheral blood lymphocytes assessed as cell growth inhibition incubated for 48 hrs by MTT assay; type: toxicity, cell-based, Lymphocyte
CAKI-1 = test: Anticancer activity against human CAKI-1 cells assessed as inhibition of cell growth at 10 uM incubated for 48 hrs by SRB assay; type: functional; conditions: CAKI-1, 48 h, values are per cent of control
KB 3-1 = test: Anticancer activity against human KB 3-1 cells assessed as cell growth inhibition incubated for 72 hrs by MTT assay; type: functional
[14] = Selectivity index, ratio of GI50 for human HaCaT cells to GI50 for human KB 3-1 cells; type: toxicity; conditions: HaCaT cells versus KB 3-1 cells, read-out: RatioGI50
MDA-MB-435 = test: Anticancer activity against human MDA-MB-435 cells assessed as inhibition of cell growth at 10 uM incubated for 48 hrs by SRB assay; type: functional
[15] = Cytotoxicity against mitogen activated human peripheral blood lymphocytes assessed as cell growth inhibition incubated for 24 hrs by MTT assay; type: toxicity, cell-based, Lymphocyte
UACC-62 = test: Anticancer activity against human UACC-62 cells assessed as inhibition of cell growth at 10 uM incubated for 48 hrs by SRB assay; type: functional
UO-31 = test: Anticancer activity against human UO-31 cells assessed as inhibition of cell growth at 10 uM incubated for 48 hrs by SRB assay; type: functional; conditions: UO-31, 48 h, values are per cent of control
MOLT-4 = test: Anticancer activity against human MOLT-4 cells assessed as inhibition of cell growth at 10 uM incubated for 48 hrs by SRB assay; type: functional
RPMI-8226 = test: Anticancer activity against human RPMI-8226 cells assessed as inhibition of cell growth at 10 uM incubated for 48 hrs by SRB assay; type: functional
LOX IMVI = test: Anticancer activity against human LOX IMVI cells assessed as inhibition of cell growth at 10 uM incubated for 48 hrs by SRB assay; type: functional
MCF7 [16] = test: Anticancer activity against human MCF7 cells assessed as inhibition of cell growth at 10 uM incubated for 48 hrs by SRB assay; type: functional; conditions: MCF7, 48 h, values are per cent of control

Row | Compound | GI50 (HCT-116) | selectivity ratio [1] | GI50 (SK-OV-3) | selectivity ratio [2] | selectivity ratio [3] | selectivity ratio [4] | GI50 (HeLa) | selectivity ratio [5] | GI50 (Jurkat) | selectivity ratio [6] | GI50 (MDA-MB-231) | selectivity ratio [7] | GI50 [8] | selectivity ratio [9] | selectivity ratio [10] | GI50 at 72 h [11] | GI50 (U-251) | GI50 (MCF7 [12]) | GI50 (A549) | other results
1 | CC[n+]1c(-c2ccccc2)c2cc(N)ccc2c2ccc(N)cc21 |  |  |  |  |  |  |  |  |  |  |  |  |  |  |  |  |  |  |  | Activity (Salmon testes DNA): 84.1%
2 | O=C1Nc2ccc(Cl)cc2/C1=C1/SC(=S)N(C2CC(=O)N(c3ccc(Cl)cc3)C2=O)C1=O (stereo not given) | > 100 µM | 1 | > 100 µM | 1 | 1 | 16.4 | 58 µM | 1 | 6.1 µM | 1.72 | > 100 µM | 1 | > 100 µM | 1 | 1 | > 100 µM | > 100 µM | > 100 µM | > 100 µM | 
3 | C=CCOc1ccccc1/C=C1\SC(=S)N(C2CC(=O)N(c3ccc(Cl)cc3)C2=O)C1=O (stereo not given) | 57.1 µM | 1.25 | > 100 µM | 1.01 | 1.75 | 1.88 | 47.5 µM | 1.1 | 53.3 µM | 2.1 | 98.6 µM | 1 | 9.6 µM | 10.4 | 1 | > 100 µM | 91.2 µM | 80.3 µM | > 100 µM | GI50 at 48 h [13]: > 100 µM; growth, % of control at 10 µM (CAKI-1): 72.2%; GI50 (KB 3-1): > 100 µM; selectivity ratio [14]: 1; inhibition at 10 µM (MDA-MB-435): 68.2%; GI50 at 24 h [15]: > 100 µM
4 | C=CCOc1cccc(/C=C2\SC(=S)N(C3CC(=O)N(c4ccc(Br)cc4)C3=O)C2=O)c1 (stereo not given) |  |  |  |  |  |  |  |  |  |  |  |  |  |  |  |  |  |  |  | inhibition at 10 µM (UACC-62): 86.8%
5 | O=C1CC(N2C(=O)CSC2=S)C(=O)N1c1ccc(Cl)cc1 (stereo not given) | > 100 µM | 0.98 | > 100 µM | 0.98 | 0.98 | 1.1 | > 100 µM | 0.98 | 88.4 µM | 1 | > 100 µM | 0.98 | > 100 µM | 0.98 | 0.98 | 97.7 µM | > 100 µM | > 100 µM | > 100 µM | growth, % of control at 10 µM (UO-31): 76.3%
6 | CCN(CC)c1ccc(/C=C2\SC(=S)N(C3CC(=O)N(c4ccc(Cl)cc4)C3=O)C2=O)cc1 (stereo not given) |  |  |  |  |  |  |  |  |  |  |  |  |  |  |  |  |  |  |  | inhibition at 10 µM (UACC-62): 73.3%; inhibition at 10 µM (MOLT-4): 76%
7 | O=C1Nc2ccccc2/C1=C1/SC(=S)N(C2CC(=O)N(c3ccc(Cl)cc3)C2=O)C1=O (stereo not given) | > 100 µM | 1 | > 100 µM | 1 | 1 | 2 | > 100 µM | 1 | 49.9 µM | 1 | > 100 µM | 1 | > 100 µM | 1 | 1 | > 100 µM | > 100 µM | > 100 µM | > 100 µM | inhibition at 10 µM (RPMI-8226): 36.3%; growth, % of control at 10 µM (UO-31): 68.5%
8 | O=C1Nc2ccccc2/C1=C1/SC(=S)N(C2CC(=O)N(c3ccc(Br)cc3)C2=O)C1=O (stereo not given) | > 100 µM | 1 | > 100 µM | 1 | 1 | 4.65 | > 100 µM | 1 | 21.5 µM | 1 | > 100 µM | 1 | > 100 µM | 1 | 1 | > 100 µM | > 100 µM | > 100 µM | > 100 µM | inhibition at 10 µM (RPMI-8226): 50%; inhibition at 10 µM (LOX IMVI): 33.8%; growth, % of control at 10 µM (MCF7 [16]): 45.7%
9 | O=C1CC(N2C(=O)CSC2=S)C(=O)N1c1ccc(O)cc1 (stereo not given) | > 100 µM | 1 | 60.8 µM | 1 | 1 | 4.27 | > 100 µM | 1 | 23.4 µM | 1 | > 100 µM | 1 | > 100 µM | 1 | 1.64 | > 100 µM | > 100 µM | > 100 µM | > 100 µM | 
10 | C=CCOc1cccc(/C=C2\SC(=S)N(C3CC(=O)N(c4ccc(Cl)cc4)C3=O)C2=O)c1 (stereo not given) | > 100 µM | 1.02 | > 100 µM | 1 | 1 | 1.35 | > 100 µM | 1 | 74 µM | 1 | > 100 µM | 1 | > 100 µM | 1 | 1 | > 100 µM | > 100 µM | 98 µM | > 100 µM | inhibition at 10 µM (LOX IMVI): 14.2%
